Source: ChEMBL document CHEMBL1268963, “Identification of a sulfonoquinovosyldiacylglyceride from Azadirachta indica and studies on its cytotoxic activity and DNA binding properties” (Bioorg Med Chem Lett, 2010)

Legend:
MOLT-4 = test: […] in human MOLT4 cells after 24 to 72 hrs by MTT assay; type: functional, cell-based
Calf thymus DNA [1] = test: Binding affinity to calf thymus DNA assessed as exothermic enthalpy at 20 degC by isothermal titration […]; type: nucleic-acid assay; conditions: Bos taurus
Calf thymus DNA [2] = test: Binding affinity to double strand calf thymus DNA assessed as melting temperature; type: nucleic-acid assay; conditions: Bos taurus

IC50 (MOLT-4): 8.3 µM
Ka (Calf thymus DNA [1]): 5.64 ×10⁴ /M
Tm (Calf thymus DNA [2]): 62 °C
Structure (SMILES): CCCCCCCCCCCCCCCC(=O)OCC(CO[C@H]1O[C@H](CS(=O)(=O)O)[C@@H](O)[C@H](O)[C@H]1O)OC(=O)CCCCCCCCCCCCCCC (stereo partly drawn)
